Results: PubChem BioAssay (NCI)
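Step 1: Grow cells in 96-well plates. Step 2: Expose to compound for 48 hours at 5 concentrations. Step 3: Interpolate endpoints linearly; if unreached, use highest concentration. GI50 = concentration required for 50% inhibition of growth. TGI marks complete inhibition of growth.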

What was measured:
Assay in all cases: DTP human tumour cell line panel, 48 h
A498 renal = tested on: A498 renal
HOP-62 NSCLC = tested on: HOP-62 NSCLC
HOP-92 NSCLC = tested on: HOP-92 NSCLC
HT29 colon = tested on: HT29 colon
LOX IMVI melanoma = tested on: LOX IMVI melanoma
M14 melanoma = tested on: M14 melanoma
NCI/ADR-RES ovarian = tested on: NCI/ADR-RES ovarian
SF-268 CNS = tested on: SF-268 CNS
SNB-75 CNS = tested on: SNB-75 CNS
UO-31 renal = tested on: UO-31 renal

Structure (SMILES)	GI50 (A498 renal)	TGI (A498 renal)	GI50 (HOP-62 NSCLC)	TGI (HOP-62 NSCLC)	GI50 (HOP-92 NSCLC)	TGI (HOP-92 NSCLC)	GI50 (HT29 colon)	TGI (HT29 colon)	GI50 (LOX IMVI melanoma)	TGI (LOX IMVI melanoma)	GI50 (M14 melanoma)	TGI (M14 melanoma)	GI50 (NCI/ADR-RES ovarian)	TGI (NCI/ADR-RES ovarian)	GI50 (SF-268 CNS)	GI50 (SNB-75 CNS)	TGI (SNB-75 CNS)	GI50 (UO-31 renal)	TGI (UO-31 renal)	TGI (SF-268 CNS)
COc1cc2c(cc1OCCCN1CCN(C(=S)SCCC(C#N)(c3ccccc3)c3ccccc3)CC1)N=C[C@@H]1CCCN1C2=O	1 µM	2.32 µM	0.121 µM	0.456 µM	0.545 µM	3.85 µM	0.944 µM	> 20.7 µM	0.721 µM	2.03 µM	1.17 µM	2.67 µM	3.69 µM	> 51.5 µM	0.386 µM	1.31 µM	2.9 µM	1.1 µM	2.32 µM	–
CC[C@@]1(O)C(=O)OCc2c1cc1n(c2=O)Cc2c-1nc1cc(F)c(C)c3c1c2[C@@H](NC(=O)CO)CC3	< 0.011 µM	0.0516 µM	< 0.01 µM	2.14 µM	< 0.0125 µM	0.355 µM	0.0512 µM	–	< 0.01 µM	0.0314 µM	< 0.01 µM	0.0957 µM	0.0564 µM	3.98 µM	< 0.01 µM	< 0.01 µM	0.133 µM	0.019 µM	0.485 µM	1.95 µM
COCCn1c2c([n+](Cc3cnccn3)c1C)C(=O)c1ccccc1C2=O	0.0987 µM	0.573 µM	0.0221 µM	0.119 µM	0.0209 µM	0.0549 µM	0.0309 µM	0.111 µM	< 0.01 µM	< 0.0118 µM	< 0.0126 µM	0.0505 µM	–	> 100 µM	< 0.01 µM	0.0313 µM	0.107 µM	0.844 µM	> 78.5 µM	< 0.01 µM
Nc1cc(N)c2nc(NCCc3ccc(Cl)c(Cl)c3)cnc2c1	20.3 µM	34.5 µM	19.8 µM	38 µM	6.15 µM	19.5 µM	6.47 µM	18.8 µM	12 µM	31.1 µM	18 µM	38.5 µM	20.5 µM	39.7 µM	4.7 µM	14.2 µM	27.2 µM	6.3 µM	20.3 µM	17.6 µM
COC(=O)c1cccc(NC(=O)c2ccc(NC3=C(Cl)C(=O)N(Cc4ccccc4)C3=O)cc2)c1	26.3 µM	73 µM	15.1 µM	35.4 µM	11 µM	23.4 µM	21.1 µM	> 100 µM	1.76 µM	16.2 µM	9.75 µM	23 µM	15.9 µM	37.6 µM	23 µM	18.3 µM	62.6 µM	1.7 µM	3.31 µM	54.9 µM
CC[C@@H](C)/C=C(C)/C=C/C(=O)c1c(O)c(-c2ccc(O)cc2)cn(OC2CC(=O)CCC(C)OC(=O)CC2O)c1=O (some centres undefined)	1.98 µM	24 µM	0.356 µM	12.9 µM	0.509 µM	18.6 µM	3.47 µM	14.1 µM	0.171 µM	2.7 µM	0.258 µM	2.38 µM	0.286 µM	3.03 µM	0.282 µM	1.07 µM	19.3 µM	0.255 µM	1.92 µM	9.39 µM
CN(C)c1ccc(/C=c2/c3cc(O)ccc3n3c2cc(-c2ccccc2)[n+]3C)cc1	> 100 µM	> 100 µM	–	4.37 µM	–	3.9 µM	–	3.86 µM	–	2.47 µM	–	2.89 µM	–	> 100 µM	–	–	1.95 µM	4.45 µM	31.7 µM	1.55 µM
COc1cc2c(cc1-c1coc3cc(O)ccc3c1=O)OCO2	–	80.5 µM	–	33.3 µM	–	67.6 µM	–	> 100 µM	–	> 100 µM	–	> 100 µM	–	48.4 µM	–	–	46.1 µM	–	58.4 µM	43.6 µM
O=C(CN1CCN(C(=O)c2ccco2)CC1)Nc1ccc(Cl)cc1C(=O)c1ccccc1Cl	6.8 µM	22.9 µM	16.9 µM	35.6 µM	4.45 µM	24.1 µM	6.23 µM	22.3 µM	11.1 µM	23.1 µM	12.5 µM	28.1 µM	10 µM	43.8 µM	14.7 µM	2.73 µM	28.3 µM	2.28 µM	14.9 µM	43.1 µM
COc1ccc(/C=C\c2cc(OC)c(OC)c(OC)c2)c(NS(=O)(=O)c2ccc(F)cc2)c1O	0.0235 µM	0.0966 µM	0.61 µM	> 100 µM	0.0723 µM	16.7 µM	2.28 µM	20.5 µM	0.142 µM	36.8 µM	0.0326 µM	> 100 µM	0.179 µM	3.4 µM	0.224 µM	0.0349 µM	> 100 µM	0.333 µM	> 82.9 µM	> 100 µM
O=C(N/N=C/c1ccncc1)c1ccc(F)cc1	34.8 µM	> 40 µM	> 40 µM	> 40 µM	> 40 µM	> 40 µM	> 40 µM	> 40 µM	> 40 µM	> 40 µM	> 40 µM	> 40 µM	> 40 µM	> 40 µM	> 40 µM	> 40 µM	> 40 µM	> 40 µM	> 40 µM	> 40 µM
